This assay concerns the target Mucolipin-3 (Homo sapiens) (UniProt Q8TDD5). The assay can be described thus: human mucolipin-3 activators, concentration-response – cell-based, HEK293, calcium fluorescence, analogs, round 2, SAR follow-up (AID 602128). The note with it: HEK293 TRPML3 cells.

The source made the active and inactive calls. The rule behind the calls is not given here. A value given as a limit tells only on which side of the number the result lay.

Chain of Mucolipin-3 (Homo sapiens) (Q8TDD5 whole entry, looked up): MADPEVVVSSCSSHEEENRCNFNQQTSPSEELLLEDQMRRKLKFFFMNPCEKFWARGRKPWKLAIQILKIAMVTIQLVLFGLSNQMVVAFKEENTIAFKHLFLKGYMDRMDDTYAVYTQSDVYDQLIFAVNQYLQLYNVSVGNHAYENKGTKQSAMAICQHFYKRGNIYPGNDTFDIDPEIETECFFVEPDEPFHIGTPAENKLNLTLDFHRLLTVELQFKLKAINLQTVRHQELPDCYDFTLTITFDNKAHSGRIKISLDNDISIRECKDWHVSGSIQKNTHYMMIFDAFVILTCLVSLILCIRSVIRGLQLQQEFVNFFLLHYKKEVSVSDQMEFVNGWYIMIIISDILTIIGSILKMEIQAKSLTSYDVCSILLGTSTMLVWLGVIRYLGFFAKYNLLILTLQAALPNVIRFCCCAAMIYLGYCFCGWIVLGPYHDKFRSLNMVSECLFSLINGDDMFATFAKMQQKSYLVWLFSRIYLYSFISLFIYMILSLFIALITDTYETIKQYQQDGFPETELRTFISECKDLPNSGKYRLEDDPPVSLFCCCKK

With `Cc1ccc(S(=O)(=O)n2nccc2-c2c(-c3ccc(Cl)cc3)noc2C)cc1`, the EC50 (commonly the concentration at which the effect is half-maximal) was > 29.9 µM (inactive).
For `Cc1ccc(S(=O)(=O)n2ccc(-c3c(-c4ccc(Cl)cc4)noc3C)n2)cc1` the value was 0.291 µM.

The values are drawn from PubChem BioAssay AID602128 (The Scripps Research Institute Molecular Screening Center, 2011).
